From US20080194417A1, “Method for Measuring and Comparing the Activity of Biologically Active Compounds” (priority 2005, published 2008)

Legend:
HepG2 cells [1] = test: Dose-dependent gene-transcriptional activity (Affymetrix GeneChip U133A) in HepG2 cells treated for 7 days; format: cell-based; conditions: for Difference in EC50 or IC50 values between RRR-α-T and all-rac-α-T / Number of genes dose-dependently regulated: HepG2; for EC50: HepG2, 104 induced genes, read-out: Transcriptional induction potency EC50, Mean ± SD; for EC50 / IC50: 7 days, 0-300 μM α-tocopheryl acetate in the media; for IC50: HepG2, 111 repressed genes, read-out: Transcriptional repression potency IC50, Mean ± SD; for Number of genes dose-dependently regulated: of the 14500 genes on the Affymetrix GeneChip U133A
Procedure: (§1) HepG2 cells (ATCC HB-8065) were cultured in 6 cm dishes in DMEM medium (GIBCO-Invitrogen, Switzerland) with 10% NU serum™ (Becton Dickinson, Switzerland) containing 1% Pen/Strep and undetectable amounts of vitamin E (detection limit 20 nM). Vitamin E compounds were applied as the acetate derivatives: RRR-α-tocopheryl acetate (Sigma and DSM Nutritional Products Ltd., Switzerland; 99-99.5 weight %, determined by gas chromatography) and all-rac-α-tocopheryl acetate (DSM Nutritional Products Ltd, Kaiseraugst, Switzerland; 98.0-99.5 weight %, determined by gas chromatography) were dissolved in 100% ethanol to prepare stock solutions. Treatment media were prepared by the addition of RRR-α-tocopheryl acetate (RRR-α-Tac) or all-rac-α-tocopheryl acetate (all-rac-α-Tac) to the basic medium at the following final concentrations: 0 (ethanol only, 1% final concentration), 10, 30, 80 and 300 μM. Treatment media were aliquoted and stored at −20° C. The vitamin E acetate treatment was performed for 7 days during the logarithmic growth phase of the cells. All treatment media were exchanged for fresh media every 24 hours. This treatment strategy has been chosen in the attempt to keep vitamin E acetate concentrations stable over time and to reach steady state intracellular vitamin E concentrations at 7 days of supplementation. All treatments were performed in quadruplicate dishes.
Cells were washed three times with PBS and lyzed with RTL buffer (Qiagen, Basel, Switzerland). Total RNA isolation was performed using RNeasy mini spin columns (Qiagen) and DNase digested on the columns (RNase-Free DNase Set, Qiagen) according to the manufacturer's description. cRNA preparation and Affymetrix GeneChip (U133A) hybridization were performed as described.
Data processing was carried out using the RACE-A analysis tool (Roche Bioinformatics, Basel, Switzerland) as described. Briefly, the arrays were normalized against the mean of the total sum of Average Difference (AvgDiff) values across all arrays used. Mean Average Difference values (MeanAvgDiff) were calculated as the means of one experiment performed in quadruplicate. Possible outliers were identified using the procedure of Nalimov with a 95% confidence interval. Subsequently, mean change factors (Chgf) for each individual gene were calculated among the different treatment groups and control using pair wise comparisons, and statistical significance was assessed by Student's t-test with prior testing for the normal distribution of the data. Applicant selected for those genes showing a dose-dependent regulation by vitamin E, i.e. maximal MeanAvgDiff>10 combined with a significant (p<0.05) differential Chgf between the vitamin E supplemented groups and the control group. The analysis of the experimental data obtained upon stimulation/treatment of the cells with RRR-α-Tac or all-rac-α-Tac was performed independently from each other.
EC50 and IC50 values, respectively, were determined by applying the standard four parameter model [y=a+(b−a)/(1+(x/c)̂d)] using the XL-Fit Software 3.0 (IDBS Inc. Emeryville, USA), where y is the normalized gene expression, x is the concentration of RRR-α-tocopherol or all-rac-α-tocopherol in the media and c corresponds to the EC50 and IC50 values, respectively. The potency-ratios were calculated as following: EC50RRR-α-T/EC50all-rac-α-T and IC50RRR-α-T/IC50all-rac-α-T.

HepG2 cells [2] = test: Cellular α-tocopherol concentrations in HepG2 cells (HPLC); format: cell-based; conditions: for Difference between the intracellular concentrations of RRR-α-T and all-rac-α-T: HepG2, 7 days; for Amount of free cellular vitamin E compared to control cells: HepG2, 7 days, 10, 30, 80 or 300 μM acetate in the media
Procedure: as §1
Adherent HepG2 cells were trypsinized, collected and washed three times with PBS containing 1% bovine serum albumin. Cells were saponified in a methanolic potassium hydroxide solution. The solution was diluted with 35% ethanol and extracted with hexane/toluene. α-Tocopheryl acetate and hydrolyzed α-tocopherols were quantified by isocratic HPLC analysis.

[3] = animal studies; cited from earlier work

| Difference in EC50 or IC50 values between RRR-α-T and all-rac-α-T (HepG2 cells [1]) | EC50 (HepG2 cells [1]) | IC50 (HepG2 cells [1]) | Difference between the intracellular concentrations of RRR-α-T and all-rac-α-T (HepG2 cells [2]) | Amount of free cellular vitamin E compared to control cells (HepG2 cells [2]) | Structure (SMILES) | Number of genes dose-dependently regulated (HepG2 cells [1]) | Potency ratio EC50RRR-α-T/EC50all-rac-α-T, Mean ± SD (HepG2 cells [1]; HepG2, 104 genes) | Potency ratio IC50RRR-α-T/IC50all-rac-α-T, Mean ± SD (HepG2 cells [1]; HepG2, 111 genes) | Overall biopotency factor (mean of all 215 potency ratios RRR-α-T to all-rac-α-T) (HepG2 cells [1]; HepG2, 215 genes) | Potency ratio Overall, Mean ± SD (HepG2 cells [1]; HepG2, 215 genes) | Biological potency relative to all-rac-α-T (times) [3] |
| --- | --- | --- | --- | --- | --- | --- | --- | --- | --- | --- | --- |
| no statistically significant differences | 14 ± 9.1 µM | 6 ± 4.5 µM | no significant difference | significantly increased | Cc1c(C)c2c(c(C)c1O)CCC(C)(CCCC(C)CCCC(C)CCCC(C)C)O2 (racemic) [all-rac-α-T, all-rac-α-tocopherol] | 215 |  |  |  |  |  |
| no statistically significant differences | 18 ± 10.7 µM | 6.4 ± 6.8 µM | no significant difference | significantly increased | Cc1c(C)c2c(c(C)c1O)CC[C@@](C)(CCC[C@H](C)CCC[C@H](C)CCCC(C)C)O2 [RRR-α-T, (2R,4′R,8′R)-α-tocopherol] | 215 | 0.9 ± 0.6 | 1.2 ± 0.7 | 1.05 | 1.05 ± 0.7 | 1.36 |
